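Each compound was tested at five concentrations against cells in 96-well plates for 48 hours. At the GI50, growth is halved. TGI denotes the concentration required for complete inhibition of growth.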

We go through seven compounds from PubChem BioAssay (NCI).

What all share (assay): inhibition of tumour cell growth, NCI panel, 48 h
Assay [1] has as its system UACC-257 melanoma.
Assay [2] has as its system IGROV1 ovarian.
Assay [3] concerns KM12 colon.
Assay [4] concerns T-47D breast.
Assay [5] has as its system MOLT-4 leukemia.
Assay [6] deals with SF-539 CNS.
The subject of assay [7] is MDA-MB-231 breast.
Assay [8] deals with SN12C renal.
Assay [9] deals with SF-295 CNS.
For assay [10], the system named is K-562 leukemia.

Take `COc1ccc(/C=C/C(=O)c2ccc(Nc3ncnc4ccccc34)cc2)cc1OC`: the GI50 in [1] is 20.3 µM; in assay [2] it was 20.7 µM; in assay [3] it was 3.45 µM; in assay [4] it was 3.61 µM; in [5], 5.68 µM; in assay [6] it was 7.73 µM. For the same compound, the GI50 in assay [7] is 19800 nM; in [8], 10.9 µM; in assay [9] it was 6.25 µM. Besides, the TGI in [1] is above 100 µM; in [2], above 100 µM; in assay [3] it was above 100 µM; in assay [4] it was 25.2 µM; in assay [5] it was 23.5 µM; in assay [6] it was 48.8 µM. In addition, the TGI in assay [7], in assay [8] and in assay [9] was above 100 µM in each case.

For `COc1cc2c(/C=C3/C(=O)Nc4ccccc43)c(Cl)n(Cc3ccccc3)c2cc1C`, the GI50 in assay [1] is above 100 µM; in [2], above 100 µM; in assay [3] it was above 100 µM; in assay [4], 41.9 µM; in [5] it was 6.05 µM; in assay [6] it was above 100 µM. In addition, the figures for the GI50 in assay [7], in assay [8] and in [9] were above 100000 nM, above 100 µM and above 100 µM, respectively. For the same compound, the TGI in [1], in assay [2], in assay [3], in [4], in [5] and in assay [6] was above 100 µM throughout. Moreover, the TGI in [7], in assay [8] and in [9] was above 100 µM throughout.

For the compound `COc1ccc(-c2ccc(/C=N/n3cn[nH]c3=S)o2)c([N+](=O)[O-])c1`, the GI50 in [2] is 39.6 µM; in assay [10], 16.9 µM; in [3] it was 27.2 µM; in [4], 51.8 µM; in assay [5], 16.3 µM; in assay [6] it was 40.9 µM. The values for the GI50 in assay [8] and in [9] were 59.1 µM and 36 µM, respectively. Further, the TGI in assay [2] is above 100 µM; in assay [10], 36.9 µM; in assay [3], above 100 µM; in assay [4], above 100 µM; in assay [5], 50.8 µM; in [6], above 100 µM. The TGI in assay [8] and in assay [9] was above 100 µM in each case.

As to `N#Cc1nc(-c2cccc(Br)c2)cc(-c2ccc(Nc3nc(N4CCCCC4)nc(N4CCCCC4)n3)cc2)c1N`, the GI50 in [1] is 2.98 µM; in [10], 2.07 µM; in assay [3], 1.91 µM; in assay [4], 1.3 µM; in assay [5], 1.1 µM; in assay [6], 1.74 µM. In addition, the GI50 in assay [7] was 1560 nM; in assay [8] it was 2.82 µM; in [9], 2.72 µM. The TGI in assay [1] is 29.8 µM; in [10] it was above 100 µM; in [3] it was 3.91 µM; in assay [4], 4.08 µM; in assay [5], above 100 µM; in assay [6], 3.14 µM. The TGI in assay [7] was 3.21 µM; in [8], above 100 µM; in [9], 8.81 µM.

Turning to `CCCCCCn1c(-c2ccc(C(=O)O/N=C(\N)c3ccc(OC)cc3)cc2)nc(-c2ccccc2)c1-c1ccccc1`, the GI50 was 4.07 µM in [1]; 0.295 µM in assay [2]; 2.81 µM in [3]; 1.94 µM in assay [4]; 1.41 µM in assay [5]; 1.5 µM in [6]. For the same compound, the GI50 in assay [7] is 1610 nM; in [8], 1.62 µM; in assay [9] it was 1.61 µM. The TGI in assay [1] is above 100 µM; in assay [2], 0.869 µM; in [3], above 100 µM; in assay [4], 4.89 µM; in assay [5] it was 4.08 µM; in assay [6] it was 3.02 µM. The TGI worked out at 3.69 µM in assay [7], 3.26 µM in assay [8] and 3.07 µM in assay [9].

Turning to `COc1ncnc2c(NC3OC(CO)C(O)C3O)ncnc12` (stereo unspecified), the TGI in [1] is above 100 µM; in assay [2], 3.82 µM; in [3] it was above 65.1 µM; in assay [4], 7.22 µM; in assay [5], 1.94 µM; in assay [6] it was 1.33 µM. Further, the TGI in assay [7] turned out to be 1.54 µM; in [8] it was 10.6 µM; in assay [9], 22.6 µM.

Turning to `CC1CCC2(OC1)OC1CC3C4CC=C5CC(OC6OC(CO)C(OC7OC(C)C(OC8OC(C)C(O)C(O)C8O)C(O)C7O)C(O)C6OC6OC(C)C(O)C(O)C6O)CCC5(C)C4CCC3(C)C1C2C` (stereo unspecified), the TGI in assay [1] was 2.02 µM; in [2], 2.59 µM; in [3] it was 1.43 µM; in assay [4] it was 2.89 µM; in assay [5], 0.958 µM; in [6] it was 1.52 µM. Moreover, the TGI in assay [7] was 1.33 µM; in [8] it was 1.04 µM; in assay [9], 1.59 µM.
